Results as given in ChEMBL document CHEMBL5390201, “The Natural Alkaloid (-)-N-Hydroxyapiosporamide Suppresses Colorectal Tumor Progression as an NF-κB Pathway Inhibitor by Targeting the TAK1-TRAF6 Complex” (J Nat Prod, 2023).
Activity calls are given as the source filed them. No cut-off for these calls is given here.

Columns and labels:
HT-29 [1] = assay: Induction of apoptosis in human HT-29 cells assessed as late apoptotic cells at 0.25 uM incubated for 24 hrs by Annexin V-FITC/PI staining based flow cytometric analysis (reference value: 1.56 %); format: functional
HCT-116 [2] = assay: Induction of autophagic flux in human HCT-116 cells assessed as increase in LC3I to LC3II conversion preincubated with 3-methyladenine for 1 hr followed by compound addition and measured after 24 hrs by Western blot analysis; format: functional, cell-based
[3] = Plasma clearance in Sprague-Dawley rat at 10 mg/kg, ip measured for 24 hrs by HPLC-MS/MS analysis; format: ADME, organism-based
HT-29 [4] = assay: Induction of cell cycle arrest in human HT-29 cells assessed as accumulation of cells at G2/M phase at 5 uM by RNase/PI staining based flow cytometry analysis (reference value: 9.93 %); format: functional
[5] = target: T1, Nuclear factor NF-kappa-B complex (Homo sapiens) (UniProt Q00653+P19838+Q04206); assay: Inhibition of TNF-alpha induced NFkappaB activation in human HT-29 cells assessed as downregulation of MCP-1 gene expression pretreated for 24 hrs followed by TNFalpha stimulation and measured after 2 hrs by quantitative RT-PCR analysis; format: cell-based; conditions: dose 1-10 µM, time 26.0 hrs
T1 sequence (P19838 whole entry, looked up): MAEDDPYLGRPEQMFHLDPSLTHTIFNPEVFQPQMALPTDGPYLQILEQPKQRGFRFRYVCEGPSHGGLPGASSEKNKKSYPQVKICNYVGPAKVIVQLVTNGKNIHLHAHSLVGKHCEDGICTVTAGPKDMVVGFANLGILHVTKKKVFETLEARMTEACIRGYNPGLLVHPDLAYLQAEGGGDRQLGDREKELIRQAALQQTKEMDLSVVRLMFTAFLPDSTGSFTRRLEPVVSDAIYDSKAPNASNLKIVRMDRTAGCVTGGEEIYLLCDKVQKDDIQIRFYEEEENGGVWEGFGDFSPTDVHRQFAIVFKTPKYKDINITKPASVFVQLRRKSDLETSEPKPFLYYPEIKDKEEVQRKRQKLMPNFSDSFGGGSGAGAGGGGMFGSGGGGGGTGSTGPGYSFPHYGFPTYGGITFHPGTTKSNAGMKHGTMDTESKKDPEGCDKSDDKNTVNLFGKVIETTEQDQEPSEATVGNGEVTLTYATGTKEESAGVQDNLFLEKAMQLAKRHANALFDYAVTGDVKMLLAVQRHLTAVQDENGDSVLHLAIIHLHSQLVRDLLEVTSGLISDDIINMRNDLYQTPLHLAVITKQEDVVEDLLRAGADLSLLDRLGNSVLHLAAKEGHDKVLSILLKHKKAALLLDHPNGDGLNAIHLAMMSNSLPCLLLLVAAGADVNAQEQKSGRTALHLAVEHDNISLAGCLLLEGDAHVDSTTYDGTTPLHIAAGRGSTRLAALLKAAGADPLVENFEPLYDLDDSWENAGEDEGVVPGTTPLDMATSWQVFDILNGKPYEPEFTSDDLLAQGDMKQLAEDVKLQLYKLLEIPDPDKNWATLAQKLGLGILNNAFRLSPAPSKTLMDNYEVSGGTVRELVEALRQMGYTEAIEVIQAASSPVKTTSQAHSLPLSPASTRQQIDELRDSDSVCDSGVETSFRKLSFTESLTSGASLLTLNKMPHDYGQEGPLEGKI
T1 sequence (Q00653 whole entry, looked up): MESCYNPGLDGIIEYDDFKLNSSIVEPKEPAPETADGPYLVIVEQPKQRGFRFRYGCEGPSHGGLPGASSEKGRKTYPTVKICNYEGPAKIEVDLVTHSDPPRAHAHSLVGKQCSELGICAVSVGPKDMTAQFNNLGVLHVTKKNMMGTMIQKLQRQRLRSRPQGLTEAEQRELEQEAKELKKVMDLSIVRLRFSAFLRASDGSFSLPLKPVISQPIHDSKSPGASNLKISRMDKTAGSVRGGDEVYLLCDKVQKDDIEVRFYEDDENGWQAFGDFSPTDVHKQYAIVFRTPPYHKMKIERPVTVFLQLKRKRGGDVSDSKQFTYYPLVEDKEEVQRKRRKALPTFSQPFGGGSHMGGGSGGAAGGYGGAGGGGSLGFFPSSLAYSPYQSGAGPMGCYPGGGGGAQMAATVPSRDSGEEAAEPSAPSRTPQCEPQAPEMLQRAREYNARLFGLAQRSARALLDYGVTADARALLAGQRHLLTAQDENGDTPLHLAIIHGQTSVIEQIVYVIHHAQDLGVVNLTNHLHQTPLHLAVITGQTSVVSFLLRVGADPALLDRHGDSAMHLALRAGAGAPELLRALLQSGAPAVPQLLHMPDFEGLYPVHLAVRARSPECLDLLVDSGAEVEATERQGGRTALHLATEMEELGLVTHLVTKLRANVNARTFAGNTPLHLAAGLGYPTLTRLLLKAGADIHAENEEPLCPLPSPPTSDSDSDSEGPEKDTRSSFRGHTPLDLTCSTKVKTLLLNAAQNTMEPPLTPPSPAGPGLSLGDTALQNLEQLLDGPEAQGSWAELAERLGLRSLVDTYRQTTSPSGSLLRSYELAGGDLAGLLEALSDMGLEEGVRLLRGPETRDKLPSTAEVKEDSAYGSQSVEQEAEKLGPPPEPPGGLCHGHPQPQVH
T1 sequence (Q04206 whole entry, looked up): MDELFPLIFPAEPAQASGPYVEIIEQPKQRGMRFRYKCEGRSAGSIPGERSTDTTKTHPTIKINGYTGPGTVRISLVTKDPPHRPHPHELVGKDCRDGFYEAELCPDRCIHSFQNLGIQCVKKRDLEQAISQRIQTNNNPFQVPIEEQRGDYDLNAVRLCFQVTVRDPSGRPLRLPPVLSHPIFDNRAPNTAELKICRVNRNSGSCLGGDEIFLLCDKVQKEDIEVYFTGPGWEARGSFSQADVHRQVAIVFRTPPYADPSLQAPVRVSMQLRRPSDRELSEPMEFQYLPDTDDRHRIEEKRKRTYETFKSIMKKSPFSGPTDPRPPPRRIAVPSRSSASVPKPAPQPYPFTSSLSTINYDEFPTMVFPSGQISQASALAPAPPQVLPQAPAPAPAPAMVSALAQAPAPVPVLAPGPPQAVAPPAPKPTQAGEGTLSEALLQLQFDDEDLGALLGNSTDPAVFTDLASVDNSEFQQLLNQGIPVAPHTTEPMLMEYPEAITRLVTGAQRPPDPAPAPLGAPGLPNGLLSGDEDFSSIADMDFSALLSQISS

[6] = Toxicity in athymic nude BALB/c mouse assessed as change in serum ALT level at 5 to 15 mg/kg, ip administered every other day and measured after 14 days; format: organism-based; conditions: in vivo, 336 h, dose 5-15 mg/kg, time 14 day
HCT-116 [7] = assay: Induction of autophagy in human HCT-116 cells assessed as increase in LC3I to LC3II conversion at 1 to 10 uM incubated for 24 hrs by Western blotting analysis; format: functional, cell-based; conditions: dose 1-10 µM
HCT-116 [8] = assay: Induction of apoptosis in human HCT-116 cells assessed as late apoptotic cells at 0.5 uM incubated for 24 hrs by Annexin V-FITC/PI staining based flow cytometric analysis (reference value: 2.9 %); format: functional
HCT-116 [9] = assay: Induction of cell cycle arrest in human HCT-116 cells assessed as accumulation of cells at S phase at 1 uM by RNase/PI staining based flow cytometry analysis (reference value: 43.77 %); format: functional
HCT-116 [10] = assay: Induction of apoptosis in human HCT-116 cells assessed as early apoptotic cells at 0.5 uM incubated for 24 hrs by Annexin V-FITC/PI staining based flow cytometric analysis (reference value: 7.22 %); format: functional
HT-29 [11] = assay: Induction of cell cycle arrest in human HT-29 cells assessed as accumulation of cells at G0/G1 phase at 5 uM by RNase/PI staining based flow cytometry analysis (reference value: 50.73 %); format: functional
[12] = Half life in Sprague-Dawley rat at 10 mg/kg, ip measured for 24 hrs by HPLC-MS/MS analysis; format: ADME, organism-based; conditions: in vivo
HCT-116 [13] = assay: Induction of apoptosis in human HCT-116 cells assessed as necrotic cells at 5 uM incubated for 24 hrs by Annexin V-FITC/PI staining based flow cytometric analysis (reference value: 0.69 %); format: functional
HT-29 [14] = assay: Induction of autophagy in human HT-29 cells assessed as increase in autophagic vesicles at 1 to 10 uM incubated for 24 hrs MDC staining-based fluorescence microscopy; format: functional, cell-based; conditions: dose 1-10 µM
[15] = target: T1, Nuclear factor NF-kappa-B complex (Homo sapiens); assay: Inhibition of NFkappaB activation in HEK293T cells transfected with Flag-tagged MyD88 and kappaB luciferase/pTK-renilla reporters at 2 uM incubated for 6 hrs by Dual Luciferase Reporter Assay; format: cell-based; conditions: HEK-293T
[16] = target: T1, Nuclear factor NF-kappa-B complex (Homo sapiens); assay: Inhibition of TNF-alpha induced NFkappaB activation in human HCT-116 cells assessed as inhibition of IL-8 production at 2 uM pretreated for 24 hrs followed by TNFalpha stimulation for 4 hrs by ELISA; format: cell-based; conditions: time 28.0 hrs
RAW264.7 = assay: Inhibition of LPS-induced NFkappaB activation in mouse RAW264.7 cells assessed as inhibition of p65 phosphorylation preincubated for 24 hrs followed by LPS stimulation for 3 hrs by Western blot analysis; format: cell-based; conditions: dose 1-10 µM, time 27.0 hrs
[17] = Cmax in Sprague-Dawley rat at 10 mg/kg, iv measured for 5 mins by HPLC-MS/MS analysis; format: ADME, organism-based; set-up: time 5 min, dose 10 mg/kg, route iv; conditions: in vivo
Mus musculus [18] = assay: In vivo inhibition of NFkappaB activation in LPS-induced BALB/c mouse model of endotoxin shock assessed as reduction in IL6 level in serum at 5 mg/kg, ip pretreated for 4 hrs followed by LPS stimulation for 1 hr by ELISA; format: functional, organism-based; conditions: time 5.0 hrs
HCT-116 [19] = assay: Induction of autophagy in human HCT-116 cells assessed as increase in autophagic vesicles at 1 to 10 uM incubated for 24 hrs MDC staining-based fluorescence microscopy; format: functional, cell-based; conditions: dose 1-10 µM
HT-29 [20] = assay: Induction of apoptosis in human HT-29 cells assessed as viable cells at 1 uM incubated for 24 hrs by Annexin V-FITC/PI staining based flow cytometric analysis (reference value: 93 %); format: functional; conditions: read-out: Activity
[21] = target: T1, Nuclear factor NF-kappa-B complex (Homo sapiens); assay: Inhibition of TNF-alpha induced NFkappaB activation in human HT-29 cells assessed as inhibition of IkappaBalpha degradation at 1 to 10 uM pretreated for 24 hrs followed by TNFalpha stimulation for 10 mins by Western blot analysis; format: cell-based; conditions: dose 1-10 µM, time 1450.0 min
[22] = Toxicity in athymic nude BALB/c mouse xenografted with human HT-29 cells assessed as pathological changes in heart at 5 to 15 mg/kg, ip administered every other day and measured after 14 days by hematoxylin and eosin staining-based microscopic analysis; format: organism-based; conditions: in vivo, 336 h, dose 5-15 mg/kg, time 14 day
HT-29 [23] = assay: Induction of apoptosis in human HT-29 cells assessed as late apoptotic cells at 1 uM incubated for 24 hrs by Annexin V-FITC/PI staining based flow cytometric analysis (reference value: 1.56 %); format: functional
HCT-116 [24] = assay: Induction of apoptosis in human HCT-116 cells assessed as late apoptotic cells at 5 uM incubated for 24 hrs by Annexin V-FITC/PI staining based flow cytometric analysis (reference value: 2.9 %); format: functional
Mus musculus [25] = assay: In vivo inhibition of NFkappaB activation in athymic BALB/c mouse xenografted with human HCT-116 cells assessed as reduction in MCP-1 gene expression in tumor at 15 mg/kg, ip administered every other day and measured after 14 days by qRT-PCR analysis; format: functional, organism-based; conditions: time 14.0 day
HT-29 [26] = assay: Induction of apoptosis in human HT-29 cells assessed as early apoptotic cells at 5 uM preincubated with Z-VAD-FMK for 1 hr followed by compound addition and measured after 24 hrs by Annexin V-FITC/PI staining based flow cytometric analysis (reference value: 4.05 %); format: functional
Mus musculus [27] = assay: Anti-inflammatory activity in AOM/DSS-induced BALB/c mouse model inflammatory bowel disease assessed as reduction in death rate at 5 to 10 mg/kg, ip pretreated with AOM for 7 days further replaced with DSS for 7 days and repeated for 2 times followed by every 2 days compound treatment for […] starting from day 50 and measured once a week; format: functional, organism-based; conditions: dose 5-10 mg/kg, time 21.0 day
[28] = target: T1, Nuclear factor NF-kappa-B complex (Homo sapiens); assay: Inhibition of TNF-alpha induced NFkappaB activation in human HCT-116 cells assessed as inhibition of IkappaBalpha phosphorylation at 1 to 10 uM pretreated for 24 hrs followed by TNFalpha stimulation for 10 mins by Western blot analysis; format: cell-based; conditions: dose 1-10 µM, time 1450.0 min
HT-29 [29] = assay: Cytotoxicity against human HT-29 cells assessed as inhibition of cell growth incubated for 24 hrs by SRB assay; format: functional, cell-based; conditions: HT-29, 24 h

Q: Which Activity (HT-29 [1]) does the source give for C[C@@H]1CC[C@H]2[C@H](C(=O)c3c(O)c([C@@]4(O)CC[C@@H](O)[C@H]5O[C@H]54)cn(O)c3=O)[C@H](C)C=C[C@@H]2C1 here?
A: Its Activity is 1.4%.

Q: What about the Activity (HCT-116 [2]) of the same molecule?
A: Its Activity is “Active”.

Q: What about the CL/F [3] of the same molecule?
A: Its CL/F is 27 mL/min/kg.

Q: What about the Activity (HT-29 [4]) of the same molecule?
A: The Activity was 0.17%.

Q: What about the inhibition [5] of the same molecule?
A: The inhibition was “Dose-Dependent Effect”.

Q: And the Activity [6]?
A: The Activity was “Non-Toxic”.

Q: What about the Activity (HCT-116 [7]) of the same molecule?
A: Its Activity is “Active”.

Q: What about the Activity (HCT-116 [8]) of the same molecule?
A: The Activity was 32.8%.

Q: What about the Activity (HCT-116 [9]) of the same molecule?
A: The Activity was 43.65%.

Q: What about the Activity (HCT-116 [10]) of the same molecule?
A: The Activity was 13.2%.

Q: And the Activity (HT-29 [11])?
A: Its Activity is 67.37%.

Q: And the half-life [12]?
A: Its half-life is 3.73 h.

Q: And the Activity (HCT-116 [13])?
A: The Activity was 0.52%.

Q: What about the Activity (HT-29 [14]) of the same molecule?
A: Its Activity is “Active”.

Q: What about the inhibition [15] of the same molecule?
A: The inhibition was “Active”.

Q: What about the inhibition [16] of the same molecule?
A: Its inhibition is “Active”.

Q: What about the inhibition (RAW264.7) of the same molecule?
A: The inhibition was “Dose-Dependent Effect”.

Q: And the Cmax [17]?
A: Its Cmax is 13200 ng/mL.

Q: What about the inhibition (Mus musculus [18]) of the same molecule?
A: The inhibition was “Active”.

Q: What about the Activity (HCT-116 [19]) of the same molecule?
A: The Activity was “Active”.

Q: What about the viability at 1 µM (HT-29 [20]) of the same molecule?
A: Its viability at 1 µM is 44.8%.

Q: What about the inhibition [21] of the same molecule?
A: Its inhibition is “Active”.

Q: And the Activity [22]?
A: Its Activity is “Non-Toxic”.

Q: And the Activity (HT-29 [23])?
A: The Activity was 7.39%.

Q: And the Activity (HCT-116 [24])?
A: The Activity was 64.4%.

Q: What about the inhibition (Mus musculus [25]) of the same molecule?
A: The inhibition was “Active”.

Q: What about the Activity (HT-29 [26]) of the same molecule?
A: The Activity was 17.1%.

Q: What about the Activity (Mus musculus [27]) of the same molecule?
A: The Activity was “Active”.

Q: And the inhibition [28]?
A: The inhibition was “Active”.

Q: What about the IC50 (HT-29 [29]) of the same molecule?
A: Its IC50 is 610 nM.
